# Laboratory results taken from the supplement of paper PMC10307832.
# Tests used:
# Test in all cases: relative viability (nuclei count vs DMSO), 5 days (fraction); higher = more cells survive
# [1] = compound: C#Cc1cccc(Nc2ncnc3cc(OC)c(OCCCCCCC(=O)NO)cc23)c1 [CUDC-101] + CC(=O)c1c(C)c2cnc(Nc3ccc(N4CCNCC4)cn3)nc2n(C2CCCC2)c1=O [Palbociclib] (partner 0.5 µM)
# Procedure, shortened: (§1)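 Lung cancer cell lines were seeded in 1536-well plates and dosed by pin tool the next day, with either a single drug or a fixed anchor-drug dose combined with five library-drug doses (not always all listed) spaced in √10 steps. Five days later, one step fixed the cells and stained their nuclei (final 0.05% Triton X-100, 1% formaldehyde, 1 ug/ml Hoechst), and nuclei were counted on 4× images. Relative viability is the nuclei count in treated wells divided by the count in vehicle wells, and each value is the median of duplicate plates.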
# [2] = compound: COc1cc2/c(=N/c3ccc(Br)cc3F)nc[nH]c2cc1OCC1CCN(C)CC1 [Vandetanib] + COc1cc2c(Oc3ccc(NC(=O)C4(C(=O)Nc5ccc(F)cc5)CC4)cc3F)ccnc2cc1OCCCN1CCOCC1 [Foretinib] (partner 0.25 µM)
# Procedure, shortened: as §1
# [3] = compound: COc1cc2/c(=N/c3ccc(Br)cc3F)nc[nH]c2cc1OCC1CCN(C)CC1 [Vandetanib] + CS(=O)(=O)N1CCN(Cc2cc3nc(-c4cccc5[nH]ncc45)nc(N4CCOCC4)c3s2)CC1 [Pictilisib] (partner 1 µM)
# Procedure, shortened: as §1
# [4] = compound: COc1cc2/c(=N/c3ccc(Br)cc3F)nc[nH]c2cc1OCC1CCN(C)CC1 [Vandetanib] + Cc1cc(Nc2cc(N3CCN(C)CC3)nc(Sc3ccc(NC(=O)C4CC4)cc3)n2)n[nH]1 [Tozasertib] (partner 0.1 µM)
# Procedure, shortened: as §1
cell line,measurement,setting,value
PC-3 [JPC-3],relative viability,[1]; first compound 0.01 µM,0.465
same,relative viability,[1]; first compound 0.03162 µM,0.574
same,relative viability,[1]; first compound 0.1 µM,0.493
same,relative viability,[1]; first compound 0.3162 µM,0.527
same,relative viability,[1]; first compound 1 µM,0.481
same,relative viability,[2]; first compound 0.02 µM,0.984
same,relative viability,[2]; first compound 0.06325 µM,0.904
same,relative viability,[2]; first compound 0.2 µM,0.936
same,relative viability,[2]; first compound 0.6325 µM,0.894
same,relative viability,[2]; first compound 2 µM,0.468
same,relative viability,[3]; first compound 0.02 µM,0.725
same,relative viability,[3]; first compound 0.06325 µM,0.709
same,relative viability,[3]; first compound 0.2 µM,0.622
same,relative viability,[3]; first compound 0.6325 µM,0.423
same,relative viability,[3]; first compound 2 µM,0.359
same,relative viability,[4]; first compound 0.02 µM,0.851
same,relative viability,[4]; first compound 0.06325 µM,0.831
same,relative viability,[4]; first compound 0.2 µM,0.938
same,relative viability,[4]; first compound 0.6325 µM,0.776
same,relative viability,[4]; first compound 2 µM,0.491
PC-14,relative viability,[1]; first compound 0.01 µM,0.629
same,relative viability,[1]; first compound 0.03162 µM,0.425
same,relative viability,[1]; first compound 0.1 µM,0.338
same,relative viability,[1]; first compound 0.3162 µM,0.0958
same,relative viability,[1]; first compound 1 µM,0.0539
same,relative viability,[2]; first compound 0.02 µM,0.955
same,relative viability,[2]; first compound 0.06325 µM,0.916
same,relative viability,[2]; first compound 0.2 µM,0.959
same,relative viability,[2]; first compound 0.6325 µM,0.447
same,relative viability,[2]; first compound 2 µM,0.196
same,relative viability,[3]; first compound 0.02 µM,0.676
same,relative viability,[3]; first compound 0.06325 µM,0.594
same,relative viability,[3]; first compound 0.2 µM,0.35
same,relative viability,[3]; first compound 0.6325 µM,0.0812
same,relative viability,[3]; first compound 2 µM,0.0658
same,relative viability,[4]; first compound 0.02 µM,0.598
same,relative viability,[4]; first compound 0.06325 µM,0.542
same,relative viability,[4]; first compound 0.2 µM,0.554
same,relative viability,[4]; first compound 0.6325 µM,0.478
same,relative viability,[4]; first compound 2 µM,0.191
RERF-LC-KJ,relative viability,[1]; first compound 0.01 µM,1.15
same,relative viability,[1]; first compound 0.03162 µM,1.16
same,relative viability,[1]; first compound 0.1 µM,1.01
same,relative viability,[1]; first compound 0.3162 µM,0.844
same,relative viability,[1]; first compound 1 µM,0.813
same,relative viability,[2]; first compound 0.02 µM,0.875
same,relative viability,[2]; first compound 0.06325 µM,0.951
same,relative viability,[2]; first compound 0.2 µM,0.904
same,relative viability,[2]; first compound 0.6325 µM,0.882
same,relative viability,[2]; first compound 2 µM,0.937
same,relative viability,[3]; first compound 0.02 µM,0.583
same,relative viability,[3]; first compound 0.06325 µM,0.543
same,relative viability,[3]; first compound 0.2 µM,0.577
same,relative viability,[3]; first compound 0.6325 µM,0.448
same,relative viability,[3]; first compound 2 µM,0.394
same,relative viability,[4]; first compound 0.02 µM,0.549
same,relative viability,[4]; first compound 0.06325 µM,0.515
same,relative viability,[4]; first compound 0.2 µM,0.491
same,relative viability,[4]; first compound 0.6325 µM,0.439
same,relative viability,[4]; first compound 2 µM,0.477
SK-LU-1,relative viability,[1]; first compound 0.01 µM,0.371
same,relative viability,[1]; first compound 0.03162 µM,0.354
same,relative viability,[1]; first compound 0.1 µM,0.407
same,relative viability,[1]; first compound 0.3162 µM,0.455
same,relative viability,[1]; first compound 1 µM,0.311
same,relative viability,[2]; first compound 0.02 µM,0.819
same,relative viability,[2]; first compound 0.06325 µM,0.564
same,relative viability,[2]; first compound 0.2 µM,0.197
same,relative viability,[2]; first compound 0.6325 µM,0.798
same,relative viability,[2]; first compound 2 µM,0.805
same,relative viability,[3]; first compound 0.02 µM,0.657
same,relative viability,[3]; first compound 0.06325 µM,0.43
same,relative viability,[3]; first compound 0.2 µM,0.509
same,relative viability,[3]; first compound 0.6325 µM,0.663
same,relative viability,[3]; first compound 2 µM,0.532
same,relative viability,[4]; first compound 0.02 µM,0.36
same,relative viability,[4]; first compound 0.06325 µM,0.361
same,relative viability,[4]; first compound 0.2 µM,0.133
same,relative viability,[4]; first compound 0.6325 µM,0.292
same,relative viability,[4]; first compound 2 µM,0.317
SK-MES-1,relative viability,[1]; first compound 0.01 µM,0.301
same,relative viability,[1]; first compound 0.03162 µM,0.33
same,relative viability,[1]; first compound 0.1 µM,0.341
same,relative viability,[1]; first compound 0.3162 µM,0.305
same,relative viability,[1]; first compound 1 µM,0.316
same,relative viability,[2]; first compound 0.02 µM,0.986
same,relative viability,[2]; first compound 0.06325 µM,0.802
same,relative viability,[2]; first compound 0.2 µM,1.01
same,relative viability,[2]; first compound 0.6325 µM,0.83
same,relative viability,[2]; first compound 2 µM,0.665
same,relative viability,[3]; first compound 0.02 µM,0.379
same,relative viability,[3]; first compound 0.06325 µM,0.294
same,relative viability,[3]; first compound 0.2 µM,0.319
same,relative viability,[3]; first compound 0.6325 µM,0.259
same,relative viability,[3]; first compound 2 µM,0.22
same,relative viability,[4]; first compound 0.02 µM,0.93
same,relative viability,[4]; first compound 0.06325 µM,0.84
same,relative viability,[4]; first compound 0.2 µM,1.01
same,relative viability,[4]; first compound 0.6325 µM,1.04
same,relative viability,[4]; first compound 2 µM,0.847
SW 1573,relative viability,[1]; first compound 0.01 µM,0.376
same,relative viability,[1]; first compound 0.03162 µM,0.346
same,relative viability,[1]; first compound 0.1 µM,0.441
same,relative viability,[1]; first compound 0.3162 µM,0.501
same,relative viability,[1]; first compound 1 µM,0.315
same,relative viability,[2]; first compound 0.02 µM,0.965
same,relative viability,[2]; first compound 0.06325 µM,0.946
same,relative viability,[2]; first compound 0.2 µM,0.81
same,relative viability,[2]; first compound 0.6325 µM,0.91
same,relative viability,[2]; first compound 2 µM,0.951
same,relative viability,[3]; first compound 0.02 µM,0.545
same,relative viability,[3]; first compound 0.06325 µM,0.534
same,relative viability,[3]; first compound 0.2 µM,0.552
same,relative viability,[3]; first compound 0.6325 µM,0.436
same,relative viability,[3]; first compound 2 µM,0.407
same,relative viability,[4]; first compound 0.02 µM,0.153
same,relative viability,[4]; first compound 0.06325 µM,0.169
same,relative viability,[4]; first compound 0.2 µM,0.19
same,relative viability,[4]; first compound 0.6325 µM,0.174
same,relative viability,[4]; first compound 2 µM,0.195
